In US6468973B1, “Method in the treatment of schizophrenia” (priority 1998, dated 2002):

Test system: patient with a severe form of schizophrenia
Assay: Case study: treatment of a patient with a severe form of schizophrenia with a GnRH-analogue
Format: in vivo, human
Method: 3. […] The patient had previously been treated with various dopamine receptor antagonists without any major improvement.
The GnRH-analogue triptorelin is available in a pharmaceutical preparation (Decapeptyl® Depot). In the use of this preparation, an injection is administered containing triptorelin embonate in a dose corresponding to 3.75 mg triptorelin. Injections with this dose are given intramuscularly. They should be repeated every fourth week from the first injection.
A detailed case study of the treatment of a patient with a severe form of schizophrenia is disclosed in the following, as supporting evidence of the effect of the method.
They had previously by other psychiatrists been given traditional treatment, for several years, without any major improvement in the symptoms of schizophrenia.
The situation when the patient came to the clinic was that they had sickness pension since more than twenty years. Their contacts with other persons were highly restraint. […] The clinical diagnosis was that they suffered from a very serious form of schizophrenia. They had no signs of any other mental illness or personality disorder. Thus, it was a clearly defined case of schizophrenia.
Certain symptoms of androgenic hyperactivity such as a male pattern baldness and frequent sexual delusions were also found at the initial examination.
An endocrinological investigation was performed, based upon their symptoms of androgenic hyperactivity. This disclosed a low blood concentration of free testosterone. Since the patient had symptoms of androgenic hyperactivity this laboratory finding could, however, not be a symptom of a low androgenic activity. Instead, the interpretation of this laboratory finding was that it was a sign of a compensatory reduction in the synthesis and release of testosterone occurring as a consequence of an increased androgenic activity in the brain.
During long periods of time the patient had been treated with the drugs which presently are considered to have the best effect against schizophrenia.
In order to overcome the sexual delusions, treatment with the long-acting GnRH-analogue triptorelin (Decapeptyl® Depot) was given every fourth week as deep intramuscular depot injections with a dose corresponding to 1.75 mg triptorelin in each injection. Initially, they were also treated with flutamid in order to prevent a transient increase in androgenic activity.
It is obvious that the dramatic improvement of the patient was caused by the treatment with a GnRH-analogue.

[1] = same patient and regimen, after another three months (five months in total)

## CC(C)C[C@H](NC(=O)[C@@H](Cc1c[nH]c2ccccc12)NC(=O)[C@H](Cc1ccc(O)cc1)NC(=O)[C@H](CO)NC(=O)[C@H](Cc1c[nH]c2ccccc12)NC(=O)[C@H](Cc1c[nH]cn1)NC(=O)[C@@H]1CCC(=O)N1)C(=O)N[C@@H](CCCNC(=N)N)C(=O)N1CCC[C@H]1C(=O)NCC(N)=O [triptorelin]
One patient, very severe schizophrenia, after six months of treatment, previously dopamine receptor antagonists without major improvement
  clinical improvement of schizophrenia: dramatically improved
person, Decapeptyl Depot i.m. every fourth week, dose corresponding to 1.75 mg triptorelin, initially with flutamid, after two months treatment
  patient's condition (schizophrenia symptoms): began to feel better
[1]
  delusions: markedly reduced
  hallucinations: all hallucinations had disappeared
  patient's condition (schizophrenia symptoms): dramatically better
